Counter-ions that a name gives are not always drawn.
Target: T1, recombinant human baculovirus-expressed GST-tagged FASN (Homo sapiens, UniProt P49327)
T1 construct: GST
Test: FASN enzyme activity assay, fluorescence-based detection of CoA with CPM
Assay type: biochemical
Conditions: 5 nM FASN, 150 μM NADPH, 10 μM acetyl-CoA, 25 μM malonyl-CoA, 90 minutes incubation; read-out: IC50 data for Additional Compounds of Formulae I-V(a): Activity
How it was run: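 Human GST-tagged FASN, baculovirus-expressed (5 nM), in 50 mM HEPES pH 7.5 with 150 μM NADPH, 10 μM acetyl-CoA, 25 μM malonyl-CoA, 0.5% DMSO; malonyl-CoA-started, 90 min. Released CoA detected with CPM (50 μM dilution), 30 min, fluorescence ex 390/em 530. IC50 from variable-slope sigmoidal fit of % inhibition versus log concentration.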

T1 sequence (P49327 whole entry): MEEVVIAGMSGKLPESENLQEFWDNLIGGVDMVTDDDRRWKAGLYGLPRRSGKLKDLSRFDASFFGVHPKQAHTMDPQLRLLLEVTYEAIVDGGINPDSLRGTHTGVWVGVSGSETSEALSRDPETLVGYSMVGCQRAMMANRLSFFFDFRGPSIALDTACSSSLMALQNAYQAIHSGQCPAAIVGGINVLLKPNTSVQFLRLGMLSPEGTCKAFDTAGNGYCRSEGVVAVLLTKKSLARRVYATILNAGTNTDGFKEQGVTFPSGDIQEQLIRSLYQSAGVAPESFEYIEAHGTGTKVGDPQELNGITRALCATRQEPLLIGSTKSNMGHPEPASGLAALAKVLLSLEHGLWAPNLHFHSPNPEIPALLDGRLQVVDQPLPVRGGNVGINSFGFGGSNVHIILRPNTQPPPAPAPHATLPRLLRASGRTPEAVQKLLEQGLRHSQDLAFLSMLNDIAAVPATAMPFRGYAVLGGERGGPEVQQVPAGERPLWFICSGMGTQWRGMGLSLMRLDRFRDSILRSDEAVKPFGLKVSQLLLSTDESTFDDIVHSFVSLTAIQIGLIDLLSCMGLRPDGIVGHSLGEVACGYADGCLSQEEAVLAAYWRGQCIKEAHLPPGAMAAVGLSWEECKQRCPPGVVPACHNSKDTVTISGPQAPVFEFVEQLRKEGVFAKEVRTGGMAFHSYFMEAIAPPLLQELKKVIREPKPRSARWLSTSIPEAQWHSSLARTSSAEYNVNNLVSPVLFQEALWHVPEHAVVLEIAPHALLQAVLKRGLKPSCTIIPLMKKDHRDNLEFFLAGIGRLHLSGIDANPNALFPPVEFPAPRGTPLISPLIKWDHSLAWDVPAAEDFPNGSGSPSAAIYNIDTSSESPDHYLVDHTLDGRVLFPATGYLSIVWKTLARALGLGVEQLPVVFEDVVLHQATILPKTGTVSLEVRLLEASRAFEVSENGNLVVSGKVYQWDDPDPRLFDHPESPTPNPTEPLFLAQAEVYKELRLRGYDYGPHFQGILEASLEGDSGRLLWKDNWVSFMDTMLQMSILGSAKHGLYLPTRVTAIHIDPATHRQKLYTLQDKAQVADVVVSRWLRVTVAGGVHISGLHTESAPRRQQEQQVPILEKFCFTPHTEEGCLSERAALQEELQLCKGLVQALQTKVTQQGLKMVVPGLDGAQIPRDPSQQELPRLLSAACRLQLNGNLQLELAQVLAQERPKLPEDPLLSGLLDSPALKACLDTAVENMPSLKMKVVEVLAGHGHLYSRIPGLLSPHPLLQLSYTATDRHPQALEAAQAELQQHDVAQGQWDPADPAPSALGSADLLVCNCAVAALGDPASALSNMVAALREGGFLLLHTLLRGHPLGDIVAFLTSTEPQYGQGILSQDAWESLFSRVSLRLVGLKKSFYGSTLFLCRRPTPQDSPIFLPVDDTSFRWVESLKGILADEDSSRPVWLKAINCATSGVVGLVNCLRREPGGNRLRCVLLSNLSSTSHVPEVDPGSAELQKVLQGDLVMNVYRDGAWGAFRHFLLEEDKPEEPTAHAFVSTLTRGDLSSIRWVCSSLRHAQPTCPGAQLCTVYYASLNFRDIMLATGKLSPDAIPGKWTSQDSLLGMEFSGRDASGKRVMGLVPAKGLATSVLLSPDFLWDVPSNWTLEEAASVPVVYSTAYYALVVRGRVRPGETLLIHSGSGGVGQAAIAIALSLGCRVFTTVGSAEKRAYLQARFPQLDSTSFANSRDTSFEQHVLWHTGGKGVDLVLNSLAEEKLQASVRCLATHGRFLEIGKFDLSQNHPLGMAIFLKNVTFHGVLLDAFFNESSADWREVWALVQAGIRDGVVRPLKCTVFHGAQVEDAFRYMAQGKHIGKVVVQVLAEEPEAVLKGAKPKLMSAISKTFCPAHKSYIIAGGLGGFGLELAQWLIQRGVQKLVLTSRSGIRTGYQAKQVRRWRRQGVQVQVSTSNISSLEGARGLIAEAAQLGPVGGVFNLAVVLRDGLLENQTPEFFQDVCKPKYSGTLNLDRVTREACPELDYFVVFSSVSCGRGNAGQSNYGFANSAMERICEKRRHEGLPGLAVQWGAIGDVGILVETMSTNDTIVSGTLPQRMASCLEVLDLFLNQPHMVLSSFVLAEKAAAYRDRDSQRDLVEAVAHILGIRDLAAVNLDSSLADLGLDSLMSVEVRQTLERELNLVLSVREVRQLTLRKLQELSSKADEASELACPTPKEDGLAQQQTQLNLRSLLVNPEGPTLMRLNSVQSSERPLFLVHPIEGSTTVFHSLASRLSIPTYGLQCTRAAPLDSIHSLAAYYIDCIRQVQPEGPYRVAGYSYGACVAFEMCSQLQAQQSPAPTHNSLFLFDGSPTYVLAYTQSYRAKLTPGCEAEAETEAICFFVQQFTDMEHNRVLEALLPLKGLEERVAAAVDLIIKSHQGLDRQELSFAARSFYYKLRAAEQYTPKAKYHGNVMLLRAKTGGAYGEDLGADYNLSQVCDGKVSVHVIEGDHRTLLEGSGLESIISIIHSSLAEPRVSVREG

IC50 [µM]	Compound
1 to 10	Cc1c(-c2ccc(OC3CCN(C(=O)NC(C)C)CC3)cc2)ccc2nccn12 [Example 603, N-Isopropyl-4-[4-(5-methylimidazo[1,2-a]pyridin-6-yl)phenoxy]piperidine-1-carboxamide]
1 to 10	Cc1c(-c2ccc(OC3CCN(C(=O)Nc4cnn(C)c4)CC3)cc2)ccc2nccn12 [Example 604, 4-[4-(5-Methylimidazo[1,2-a]pyridin-6-yl)phenoxy]-N-(1-methylpyrazol-4-yl)piperidine-1-carboxamide]
1 to 10	Cc1c(-c2ccc(OC3CCN(C(=O)OC(C)(C)C)CC3)cc2)ccc2nccn12 [Example 605, tert-Butyl 4-[4-(5-methylimidazo[1,2-a]pyridin-6-yl)phenoxy]piperidine-1-carboxylate]
1 to 10	Cc1c(-c2ccc(OC3CCN(C(=O)NCC(F)(F)F)CC3)cc2)ccc2nccn12 [Example 606, 4-[4-(5-Methylimidazo[1,2-a]pyridin-6-yl)phenoxy]-N-(2,2,2-trifluoro-ethyl)piperidine-1-carboxamide]
1 to 10	CCCONC(=O)N1CCC(Oc2ccc(-c3ccc4nccn4c3C)cc2)CC1 [Example 607, 4-[4-(5-Methylimidazo[1,2-a]pyridin-6-yl)phenoxy]-N-propoxy-piperidine-1-carboxamide]
0.1 to 0.999	CCONC(=O)N1CCC(Oc2ccc(-c3ccc4nccn4c3C)cc2)CC1 [Example 608, N-Ethoxy-4-[4-(5-methylimidazo[1,2-a]pyridin-6-yl)phenoxy]piperidine-1-carboxamide]
0.001 to 0.099	Cc1c(-c2ccc(OC3CCN(C(=O)CN)CC3)cc2)ccc2cccnc12 [Example 609, 2-Amino-1-[4-[4-(8-methyl-7-quinolyl)phenoxy]-1-piperidyl]ethanone, 2HCl]
1 to 10	Cc1c(-c2ccc(OC3CCN(C(=O)[C@@H](C)N)CC3)cc2)ccc2cccnc12 [Example 610, (2R)-2-Amino-1-[4-[4-(8-methyl-7-quinolyl)phenoxy]-1-piperidyl]propan-1-one, 2HCl]
1 to 10	CONC(=O)N1CCC(Oc2ccc(-c3ccc4nccn4c3C)cc2)CC1 [Example 611, N-Methoxy-4-[4-(5-methylimidazo[1,2-a]pyridin-6-yl)phenoxy]piperidine-1-carboxamide]
0.001 to 0.099	Cc1c(-c2ccc(OC3CCN(C(=O)[C@H](C)N)CC3)cc2)ccc2cccnc12 [Example 612, (2S)-2-Amino-1-[4-[4-(8-methyl-7-quinolyl)phenoxy]-1-piperidyl]propan-1-one 2HCl]
1 to 10	Cc1c(-c2ccc(OC3CCN(C(=O)NO)CC3)cc2)ccc2nccn12 [Example 613, 4-[4-(5-Methylimidazo[1,2-a]pyridin-6-yl)phenoxy]piperidine-1-carbohydroxamic acid]
1 to 10	Cc1c(-c2ccc(OC3CCN(C(=O)CN(C)C)CC3)cc2)ccc2cccnc12 [Example 614, 2-(Dimethylamino)-1-[4-[4-(8-methyl-7-quinolyl)phenoxy]-1-piperidyl]-ethanone]
1 to 10	Cc1c(-c2ccc(OC3CCN(C(N)=O)CC3)cc2)ccc2nccn12 [Example 615, 4-[4-(5-Methylimidazo[1,2-a]pyridin-6-yl)phenoxy]piperidine-1-carboxamide]
1 to 10	Cc1c(-c2ccc(OC3CCN(C(=O)[C@H]4CCCN4C)CC3)cc2)ccc2cccnc12 [Example 616, [(2R)-1-Methylpyrrolidin-2-yl]-[4-[4-(8-methyl-7-quinolyl)phenoxy]-1-piperidyl]methanone]
1 to 10	Cc1c(-c2ccc(OC3CCN(C(=O)[C@@H]4CCCN4C)CC3)cc2)ccc2cccnc12 [Example 617, [(2S)-1-Methylpyrrolidin-2-yl]-[4-[4-(8-methyl-7-quinolyl)phenoxy]-1-piperidyl]methanone]
1 to 10	Cc1c(-c2ccc(OC3CCN(C(=O)SC(C)C)CC3)cc2)ccc2cccnc12 [Example 618, S-Isopropyl 4-[4-(8-methyl-7-quinolyl)phenoxy]piperidine-1-carbothioate]

IC50 [µM]	Compound
1 to 10	Cc1c(-c2ccc(OC3CCN(C(=O)C(C)(C)N)CC3)cc2)ccc2cccnc12 [Example 619, 2-Amino-2-methyl-1-[4-[4-(8-methyl-7-quinolyl)phenoxy]-1-piperidyl]propan-1-one]
1 to 10	Cc1c(-c2ccc(OC3CCN(C(=O)[C@H]4CCCN4)CC3)cc2)ccc2cccnc12 [Example 620, [4-[4-(8-Methyl-7-quinolyl)phenoxy]-1-piperidyl]-[(2R)-pyrrolidin-2-yl]methanone]
1 to 10	Cc1c(-c2ccc(OC3CCN(C(=O)[C@@H]4CCCN4)CC3)cc2)ccc2cccnc12 [Example 621, [4-[4-(8-Methyl-7-quinolyl)phenoxy]-1-piperidyl]-[(2S)-pyrrolidin-2-yl]-methanone]
1 to 10	CNC1(C(=O)N2CCC(Oc3ccc(-c4ccc5cccnc5c4C)cc3)CC2)CC1 [Example 622, [1-(Methylamino)cyclopropyl]-[4-[4-(8-methyl-7-quinolyl)phenoxy]-1-piperidyl]methanone]
1 to 10	Cc1c(-c2ccc(OC3CCN(C(=O)CCN)CC3)cc2)ccc2cccnc12 [Example 623, 3-Amino-1-[4-[4-(8-methyl-7-quinolyl)phenoxy]-1-piperidyl]propan-1-one, 2HCl]
1 to 10	Cc1c(-c2ccc(OC3CCN(C(=O)COC(C)C)CC3)cc2)ccc2cccnc12 [Example 624, 2-Isopropoxy-1-[4-[4-(8-methyl-7-quinolyl)phenoxy]-1-piperidyl]ethanone, HCl]
0.001 to 0.099	CC(=O)OCC(=O)N1CCC(Oc2ccc(-c3ccc4cccnc4c3C)cc2)CC1 [Example 625, [2-[4-[4-(8-Methyl-7-quinolyl)phenoxy]-1-piperidyl]-2-oxo-ethyl]acetate]
0.001 to 0.099	Cc1c(-c2ccc(OC3CCN(C(=O)CO)CC3)cc2)ccc2cccnc12 [Example 626, 2-Hydroxy-1-[4-[4-(8-methyl-7-quinolyl)phenoxy]-1-piperidyl]ethanone]
1 to 10	Cc1c(-c2ccc(OC3CCN(C(=O)C4(N)CCC4)CC3)cc2)ccc2cccnc12 [Example 627, (1-Aminocyclobutyl)-[4-[4-(8-methyl-7-quinolyl)phenoxy]-1-piperidyl]-methanone]
0.001 to 0.099	CCNC(=O)N1CCC(Oc2ccc(-c3ccn4ccnc4c3)cc2)CC1 [Example 628, N-Ethyl-4-(4-imidazo[1,2-a]pyridin-7-ylphenoxy)piperidine-1-carboxamide, HCl]
1 to 10	CCNC(=O)N1CCC(Oc2ccc(-c3ccn4ccnc4c3C)cc2)CC1 [Example 629, N-Ethyl-4-[4-(8-methylimidazo[1,2-a]pyridin-7-yl)phenoxy]piperidine-1-carboxamide, HCl]
0.1 to 0.999	Cc1c(-c2ccc(OC3CCN(C(=O)NOC(C)C)CC3)cc2)ccn2ccnc12 [Example 630, N-Isopropoxy-4-[4-(8-methylimidazo[1,2-a]pyridin-7-yl)phenoxy]piperidine-1-carboxamide, HCl]
0.001 to 0.099	CCCNC(=O)N1CCC(Oc2ccc(-c3ccn4ccnc4c3C)cc2)CC1 [Example 631, 4-[4-(8-Methylimidazo[1,2-a]pyridin-7-yl)phenoxy]-N-propyl-piperidine-1-carboxamide, HCl]
0.001 to 0.099	Cc1c(-c2ccc(OC3CCN(C(=O)NCC(C)C)CC3)cc2)ccn2ccnc12 [Example 632, N-Isobutyl-4-[4-(8-methylimidazo[1,2-a]pyridin-7-yl)phenoxy]piperidine-1-carboxamide]
0.001 to 0.099	Cc1c(-c2ccc(OC3CCN(C(=O)NCC(C)C)CC3)cc2)ccc2ccnn12 [Example 633, N-Isobutyl-4-[4-(7-methylpyrazolo[1,5-a]pyridin-6-yl)phenoxy]piperidine-1-carboxamide]

Tested on: not given
Test: not given
Conditions: not given

melting point [°C]	Compound
170 to 173	O=C(C1CC1)N1CCC(Oc2ccc(-c3cnc4ccccc4c3)cc2)CC1 (as salt: HCl) [Example 100, Cyclopropyl-[4-(4-quinolin-3-yl-phenoxy)-piperidin-1-yl]-methanone,HCl]
164 to 166	O=C(C1CCC1)N1CCC(Oc2ccc(-c3cnc4ccccc4c3)cc2)CC1 (as salt: HCl) [Example 101, Cyclobutyl-[4-(4-quinolin-3-yl-phenoxy)-piperidin-1-yl]-methanone,HCl]
145 to 147	O=C(C1CCCC1)N1CCC(Oc2ccc(-c3cnc4ccccc4c3)cc2)CC1 (as salt: HCl) [Example 102, Cyclopentyl-[4-(4-quinolin-3-yl-phenoxy)-piperidin-1-yl]-methanone, 2HCl]
124 to 130	CC(C)C(=O)N1CCC(Oc2ncc(-c3cnc4ccccc4c3)cn2)CC1 (as salt: HCl) [Example 138, 2-Methyl-1-[4-(5-quinolin-3-yl-pyrimidin-2-yloxy)-piperidin-1-yl]-propan-1-one, 2HCl]
150 to 153	O=C(C1CC1)N1CCC(Oc2ncc(-c3cnc4ccccc4c3)cn2)CC1 (as salt: HCl) [Example 139, Cyclopropyl-[4-(5-quinolin-3-yl-pyrimidin-2-yloxy)-piperidin-1-yl]-methanone, 2HCl]
207 to 212	CCC(=O)N1CCC(Oc2ccc(-c3cnc4ccccc4c3)nc2)CC1 (as salt: HCl) [Example 140, 1-[4-(6-Quinolin-3-yl-pyridin-3-yloxy)-piperidin-1-yl]-propan-1-one, 2HCl]
99 to 102	CC(C)C(=O)N1CCC(Oc2ccc(-c3cnc4ccccc4c3)nc2)CC1 (as salt: HCl) [Example 141, 2-Methyl-1-[4-(6-quinolin-3-yl-pyridin-3-yloxy)-piperidin-1-yl]-propan-1-one, 2HCl]
230 to 234	O=C(C1CC1)N1CCC(Oc2ccc(-c3cnc4ccccc4c3)nc2)CC1 (as salt: HCl) [Example 142, Cyclopropyl-[4-(6-quinolin-3-yl-pyridin-3-yloxy)-piperidin-1-yl]-methanone, 2HCl]
